Assay results reported in patent US12281084B2, “Acetyl-CoA synthetase 2 (ACSS2) inhibitors and methods using same” (The Wistar Institute, priority 2019, dated 2025).
“Also recorded” adds a separate entry of the source.

Legend:
BT474 cells = assay: RNA sequencing of BT474 cells under hypoxia and low lipid stress; format: cell-based, human; conditions: H1, RNA sequencing
Experimental: ACSS2 affects histone and transcription factor acetylation in the nucleus of cells which then affects gene transcription. It was thus tested if inhibition of ACSS2 affects hypoxia and lipid depletion induced transcriptional stress responses. BT474 cells were incubated in normoxic, nutrient replete conditions (N10) and in hypoxic, low lipid conditions (H1). […] Additional analysis also found significant upregulation of 30 genes related to fatty acid synthesis (FIG. 3D).
It was then compared how many of the 1075 hypoxia and low lipid stress responsive genes were affected by siRNA mediated knockdown of ACSS2 (siACSS2) and VY-3-135 treatment.

BT474 tumors = assay: BT474 tumor xenograft growth in NSG mice; format: in vivo, mouse
Experimental: For BT474 mouse xenograft studies 5-6 week old female NSG […] were anesthetized and one 17β-estradiol 60 day release pellet (Innovative Research of America Cat. No. SE-121) was injected subcutaneously via 10 gauge precision trochar into the lateral side of the neck between the ear and shoulder. 24 hours later 10^5 BT474 luciferase positive cells in 100 μl PBS:matrigel (growth factor reduced) were injected subcutaneously into the hind limb. For A7C11 and Brpkp110 xenografts, 5×10^5 cells in 100 μl PBS:Matrigel (growth factor reduced Corning Cat. No. 356231) were subcutaneously injected into the hindlimb of 5-6 week old female NSG mice […]. Following tumor establishment in all groups, mice were randomized and treated intraperitoneally (IP) daily with vehicle (10% DMSO, 10% absolute ethanol, 20% solutol, 60% water containing 0.5% Tween20) or 100 mg/kg VY-3-135 as indicated in the figure legend. Tumors were measured thrice weekly via caliper measurement and tumor volume calculated as (L×W^2)/2 (where L is the longer of the 2 measurements). […]
Mice bearing luciferase positive tumors were injected IP with 150 mg/kg sterile filtered D-luciferin potassium salt (Gold Bio Cat. No. LUCK-1G). […] Images were analyzed using Living Image Software (Perkin Elmer). […]

CCn1c(C(O)(c2ccccc2)c2ccccc2)nc2ccc(C(=O)NC[C@@H](C)O)cc21 [VY-3-135, (R)-1-ethyl-2-(hydroxydiphenylmethyl)-N-(2-hydroxypropyl)-1H-benzo[d]imidazole-6-carboxamide]
transcriptional regulation of genes in response to hypoxia and low lipid stress (BT474 cells): has a minimal effect on the transcriptional regulation of genes in response to hypoxia and low lipid stress | tumor palpability / regression at end of regimen (BT474 tumors; BT474 luciferase tumors, VY-3-135 treated group): two of the tumors in VY-3-135 treated group were not palpable by the end of the regimen, with one tumor fully regressing | BT474 tumor growth (BT474 tumors; VY-3-135 100 mg/kg IP daily, two weeks of treatment (FIG. 6A), 100 mg/kg): causes a significant decrease in BT474+luciferase tumor growth; also recorded: completely abrogated tumor growth
